Reference: PMC13026664, “Transcriptional Activation of Estrogen Receptor-Alpha and Estrogen Receptor-Beta from Elephant Shark (Callorhynchus milii)” (Genes, 2026)

What was measured:
Atlantic sea lamprey ER = conditions: cited from earlier work
elephant shark ERb = target: T1, elephant shark ERb (Callorhinchus milii, UniProt A0A1V1FJE9); experiment: cell-based
T1 sequence (A0A1V1FJE9 1-580): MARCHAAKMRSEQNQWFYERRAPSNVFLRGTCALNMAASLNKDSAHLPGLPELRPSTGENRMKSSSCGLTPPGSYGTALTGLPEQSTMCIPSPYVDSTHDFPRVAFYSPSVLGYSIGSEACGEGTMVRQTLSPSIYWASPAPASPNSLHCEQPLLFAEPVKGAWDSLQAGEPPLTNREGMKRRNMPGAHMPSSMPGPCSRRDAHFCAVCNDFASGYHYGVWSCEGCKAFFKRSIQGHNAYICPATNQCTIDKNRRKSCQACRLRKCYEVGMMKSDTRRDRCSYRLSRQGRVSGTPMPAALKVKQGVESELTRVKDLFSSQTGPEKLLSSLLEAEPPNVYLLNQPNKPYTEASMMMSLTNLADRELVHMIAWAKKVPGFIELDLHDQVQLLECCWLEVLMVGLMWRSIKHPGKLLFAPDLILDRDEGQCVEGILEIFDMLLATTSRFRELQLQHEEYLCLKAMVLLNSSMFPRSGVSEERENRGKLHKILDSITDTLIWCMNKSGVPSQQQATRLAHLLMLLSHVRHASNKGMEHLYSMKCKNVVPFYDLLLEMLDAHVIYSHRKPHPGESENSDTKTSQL
Experimental: (§1) Full-length estrogen receptors were amplified using specific forward and reverse primers designed at start and stop codons and cloned into the mammalian expression vector pcDNA3.1 (Invitrogen). In addition, ERs with a FLAG-tag added to the N-terminus were also prepared by PCR. A reporter construct, pGL4.23-4xERE, was produced by subcloning of oligonucleotides having 4xERE into the KpnI-HindIII site of pGL4.23 vector (Promega, Madison, WI, USA). All cloned DNA sequences were verified by sequencing.
(§2) Reporter gene assays using full-length ERs were performed in Human Embryonic Kidney 293 cells (HEK293 cells). HEK293 cells were seeded in 24-well plates at 5 × 10^4 cells/well in phenol-red-free Dulbecco’s modified Eagle’s medium with 10% charcoal/dextran-treated fetal bovine serum. After 24 h, the cells were transfected with 400 ng of reporter construct, 25 ng of pRL-TK (as an internal control to normalize the variation in transfection efficiency; contains the Renilla reniformis luciferase gene with the herpes simplex virus thymidine kinase promoter), and 200 ng of pcDNA3.1-estrogen receptor using polyethylenimine (PEI). After 5 h of incubation, ligands were applied to the medium at various concentrations. After an additional 43 h, the cells were collected, and the luciferase activity of the cells was measured with the Dual-Luciferase Reporter Assay System. Promoter activity was calculated as firefly (Photinus pyralis) luciferase activity/sea pansy (R. reniformis) luciferase activity. […] All experiments were performed in triplicate.
(§3) Elephant shark ERs were transfected into HEK293 cells with an ERE-driven reporter gene. […] Data are expressed as a ratio of a vehicle (DMSO) to other test chemicals. Each point represents the mean of triplicate determinations, and vertical bars represent the mean ± SEM.

[1] = system: amphioxus steroid receptor (SR); conditions: cited from earlier work
elephant shark ERa4 = experiment: Transcriptional activation of ERa4; format: cell-based, elephant shark (Callorhynchus milii); conditions: ERa4 has a deletion in the DNA-binding domain
Experimental: as §1
Reporter gene assays using full-length ERs were performed in Human Embryonic Kidney 293 cells (HEK293 cells). HEK293 cells were seeded in 24-well plates at 5 × 10^4 cells/well in phenol-red-free Dulbecco’s modified Eagle’s medium with 10% charcoal/dextran-treated fetal bovine serum. […] After an additional 43 h, the cells were collected, and the luciferase activity of the cells was measured with the Dual-Luciferase Reporter Assay System. Promoter activity was calculated as firefly (Photinus pyralis) luciferase activity/sea pansy (R. reniformis) luciferase activity. The values shown are mean ± SEM from three separate experiments, and dose–response data, which were used to calculate the half-maximal response (EC50) for each steroid, were analyzed using GraphPad Prism (Version 11, GraphPad Software, Inc., San Diego, CA, USA). […]

amphioxus ER = conditions: cited from earlier work
elephant shark ERa2 = target: T2, elephant shark ERa2 (Callorhinchus milii, UniProt A0A1V1FR36)
T2 sequence (A0A1V1FR36 1-596): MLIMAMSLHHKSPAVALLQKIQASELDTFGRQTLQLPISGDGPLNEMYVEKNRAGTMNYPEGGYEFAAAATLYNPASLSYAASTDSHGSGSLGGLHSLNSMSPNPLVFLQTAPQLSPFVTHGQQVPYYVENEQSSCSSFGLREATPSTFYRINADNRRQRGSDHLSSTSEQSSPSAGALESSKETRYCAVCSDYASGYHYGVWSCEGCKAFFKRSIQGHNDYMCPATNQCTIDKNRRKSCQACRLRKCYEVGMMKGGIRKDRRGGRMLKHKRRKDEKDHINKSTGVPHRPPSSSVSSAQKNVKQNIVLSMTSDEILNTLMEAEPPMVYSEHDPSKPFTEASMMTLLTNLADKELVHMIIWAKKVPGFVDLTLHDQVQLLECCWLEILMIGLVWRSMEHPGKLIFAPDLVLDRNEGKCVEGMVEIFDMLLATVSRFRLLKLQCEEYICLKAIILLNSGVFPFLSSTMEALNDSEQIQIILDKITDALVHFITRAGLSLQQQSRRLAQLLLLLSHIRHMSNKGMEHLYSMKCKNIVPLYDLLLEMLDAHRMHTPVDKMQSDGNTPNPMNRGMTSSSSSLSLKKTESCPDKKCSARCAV
Experimental: as §1, §2, §3

elephant shark ERa3 = target: T3, elephant shark ERa3 (Callorhinchus milii, UniProt A0A1V1FR36)
T3 sequence (A0A1V1FR36 1-596): T2 sequence (A0A1V1FR36 1-596)
Experimental: as §1, §2, §3

elephant shark ERa1 = target: T4, elephant shark ERa1 (Callorhinchus milii, UniProt A0A1V1FR36); experiment: cell-based
T4 sequence (A0A1V1FR36 1-596): T2 sequence (A0A1V1FR36 1-596)
Experimental: as §1, §2, §3

[2] = HEK293, 43 h, read-out: Fold-Activation (±SEM)

C[C@]12CC[C@@H]3c4ccc(O)cc4CC[C@H]3[C@@H]1CCC2=O [E1, Estrone]
Activation of Atlantic sea lamprey ER (Atlantic sea lamprey ER): activated | EC50 (elephant shark ERb): 0.14 nM | Transcriptional activation of amphioxus SR [1]: transcriptional activators

C[C@]12CC[C@@H]3c4ccc(O)cc4CC[C@H]3[C@@H]1CC[C@@H]2O [E2, 17b-estradiol]
Activation of Atlantic sea lamprey ER (Atlantic sea lamprey ER): activated | Transcriptional activation of ERa4 (elephant shark ERa4): lack of transcriptional activation | Binding to amphioxus ER (amphioxus ER): does not bind | Transcriptional activation of amphioxus SR [1]: transcriptional activators

C[C@]12CC[C@@H]3c4ccc(O)cc4CC[C@H]3[C@@H]1C[C@@H](O)[C@@H]2O [E3, estriol]
Ratio (fold-activation of each estrogen divided by the value of E2) (elephant shark ERa2; ERa2 in HEK293, 10 nM): 1.02 | Fold-Activation (±SEM) (elephant shark ERa2; ERa2 in HEK293, based on the 10 nM values, ratio to vehicle (DMSO), 2580 min): 1.82 (±0.13) | EC50 (elephant shark ERa2; read-out: EC50 for transcriptional activation, ERa2 in HEK293, 4xERE luciferase reporter): 0.31 nM | Ratio (fold-activation of each estrogen divided by the value of E2) (elephant shark ERa3; ERa3 in HEK293, 10 nM): 1.07 | Fold-Activation (±SEM) (elephant shark ERa3; ERa3 in HEK293, based on the 10 nM values, ratio to vehicle (DMSO), 2580 min): 1.87 (±0.15) | EC50 (elephant shark ERa3; read-out: EC50 for transcriptional activation, ERa3 in HEK293, 4xERE luciferase reporter): 0.29 nM | EC50 (elephant shark ERb): 0.02 nM | Ratio (fold-activation of each estrogen divided by the value of E2) (elephant shark ERb; ERb in HEK293, 10 nM): 1.08 | fold induction at 0.01 µM (elephant shark ERb; [2]): 3.49 | EC50 (elephant shark ERa1): 0.2 nM | Ratio (fold-activation of each estrogen divided by the value of E2) (elephant shark ERa1; ERa1 in HEK293, 10 nM): 0.95 | fold induction at 0.01 µM (elephant shark ERa1; [2]): 1.57
